Laboratory results published in PMC6268528, “3-Phenylcoumarins as Inhibitors of HIV-1 Replication” (Molecules, 2012).
Where two headings read alike, the source gives them in different places.

Legend:
HIV-1 Tat protein = test: HeLa-Tat-Luc cells, HIV-1 LTR activated by Tat; format: cell-based; details: for inhibition at 25 µM: Human immunodeficiency virus 1, read-out: Antiviral activity Hela-Tat-luc 25 µM (inhibition of Tat function); for inhibition at 50 µM: Human immunodeficiency virus 1, read-out: Antiviral activity Hela-Tat-luc 50 µM (inhibition of Tat function); for anti-Tat activity and specificity, in words: HeLa-Tat-Luc and Hela-Tet-ON assays
From the text: (§1) In the characterization of anti-HIV activity, the effect of these coumarins on Tat and NF-κB functions has been evaluated in a similar manner as we described in a previous publication. We have used two transfected 5.1 cell lines, in which we measured NF-κB activation induced by TNFα [42] and HeLa-Tat-Luc cells, in which the HIV-1 LTR is directly activated by the HIV-1 Tat protein. Most of the compounds were submitted for further evaluation through a HeLa-Tet-ON assay in order to determine the selectivity of their action. To avoid missing compounds acting through another mechanism, all substances were also evaluated using a recombinant virus (RV) assay. In this system, a luciferase reporter gene was cloned in full-length infectious DNA. As a result, the measured luciferase activity is therefore proportional to viral replication.
(§2) The anti-HIV activity of these coumarins on Tat and NF-κB functions has been analysed. To this aim, we have used two stably transfected cell lines. The previously described 5.1 cell line is a Jurkat-derived clone stably transfected with a plasmid containing the luciferase gene under the control of HIV-LTR. In this cell clone, activation with TNFα induces NF-κB activation and subsequent HIV-1 expression. We have also analyzed the anti-HIV activity in HeLa-Tat-Luc cells, in which the HIV-1 LTR is directly activated by the HIV-1 Tat protein. A compound was considered active in one assay if it inhibited the target function by more than 50% (NF-κB) or 30% (Tat) at either 25 or 50 μM concentration. The active compounds were submitted for further evaluation through a HeLa-Tet-ON assay, as previously described. In the Hela-Tet-ON cells the luciferase expression is under control of an artificial promoter that can be activated by tetracycline. Therefore, compounds that inhibit tetracycline-induced luciferase activity were considered non-specific for luciferase-based anti-HIV assays and were not examined further, and those showing specific activity (non-inhibitors in HeLa-Tet-ON cells) were analysed using a recombinant virus (RV) assay. […] In this system, a luciferase reporter gene has been cloned in full-length infectious DNA. The measured luciferase activity is therefore directly proportional to the replication of the virus. This assay is more sensitive and reliable than classic infectious assays. Cell viability was evaluated in non-infected treated cultures following the same protocol as in the recombinant virus assay and measuring cell toxicity with a classical MTT assay. IC50 and CC50 were calculated using GraphPad Prism software [non-linear regression, log (inhibitor) vs. response].

HIV-1 = test: Recombinant virus (RV) assay, luciferase reporter virus on MT-2 cells; format: cell-based; details: for fold lesser potent than 11 in the RV assay: relative to compound 11
Protocol: We have synthesized fourteen 3-phenylcoumarin derivatives and evaluated their anti-HIV activity. Antiviral activity was assessed on MT-2 cells infected with viral clones carrying the luciferase gene as reporter. Inhibition of HIV transcription and Tat function were tested on cells stably transfected with the HIV-LTR and Tat protein. […] The antiviral effect of the 4-hydroxycoumarin derivative 19 correlates with its specific inhibition of Tat functions, while compound 8, 3-(2-chlorophenyl)coumarin, seems to act through a mechanism unrelated to the molecular targets considered in this research.
as §1, §2

non-infected MT-2 cells = test: Cell viability, MTT assay in non-infected treated cultures; format: cell-based; parameters: Toxicity (%) CC50: unit not given here
From the text: as §2

NF-κB = test: 5.1 cell line + TNFα, HIV-LTR luciferase (NF-κB activation); format: cell-based; details: for inhibition at 50 µM: read-out: Antiviral activity 5.1 + TNFα 50 µM (inhibition of NF-κB function); for specificity of NF-κB inhibition, in words: with HeLa-Tet-ON evaluation; for inhibition at 25 µM: read-out: Antiviral activity 5.1 + TNFα 25 µM (inhibition of NF-κB function)
From the text: as §1, §2

[1] = system: tetracycline-induced luciferase activity in HeLa-Tet-ON cells; test: HeLa-Tet-ON specificity assay; format: cell-based; parameters: key: S: specific; U: unspecific modes of action
From the text: as §1, §2

[2] = Human immunodeficiency virus 1, MT2, read-out: RV (VIH) IC50

SMILES	inhibition at 25 µM (HIV-1 Tat protein) [%]	inhibition at 50 µM (HIV-1 Tat protein) [%]	melting point [°C]	IC50 (HIV-1; [2]) [µM]	Toxicity (%) CC50 (non-infected MT-2 cells; MTT, non-infected cultures)	inhibitory activity in the NF-κB test, in words (NF-κB; 50 µM)	inhibition at 50 µM (NF-κB) [%]	specificity of NF-κB inhibition, in words (NF-κB)	HeLa-Tet-ON 50 µM (specific / unspecific mode of action) [1]	anti-Tat activity and specificity, in words (HIV-1 Tat protein)	inhibition at 25 µM (NF-κB) [%]	Toxicity (%) CC50 (non-infected MT-2 cells; human)	inhibition at 50 µM (NF-κB; 50 µM, 5.1 Jurkat-derived cells, TNFα) [%]	rank as inhibitor of HIV replication, in words (HIV-1; RV assay)	fold lesser potent than 11 in the RV assay (HIV-1)	inhibitory activity in the NF-κB test, in words (NF-κB; 25 μM)	IC50 (HIV-1; recombinant virus, luciferase, read-out: RV (VIH) IC50) [µM]	CC50 (non-infected MT-2 cells; comparison drug, read-out: Toxicity CC50) [µM]
COc1cc(-c2cc3ccccc3oc2=O)cc(OC)c1OC [Compound 15, 3-(3,4,5-Trimethoxyphenyl)-2H-chromen-2-one]	47.6 ± 6.2	35.1 ± 3.9	122 to 124	62.7 ± 13.1	42.8 ± 16.2	fair inhibitory activity	49.7 ± 7	unspecific	U									
COc1ccc2c(O)c(-c3ccccc3)c(=O)oc2c1 [Compound 19, 4-Hydroxy-7-methoxy-3-phenyl-2H-chromen-2-one]	48.9 ± 3.4	55.7 ± 4.9	217 to 219	23.8 ± 1.7	>50		-4.7 ± 0.3		S	modest, but specific inhibition	-34.3 ± 5							
COc1ccc2oc(=O)c(-c3ccccc3)c(O)c2c1 [Compound 18, 4-Hydroxy-6-methoxy-3-phenyl-2H-chromen-2-one]		22.8 ± 3.4		186 ± 10.8					S			>50	-3.5 ± 0.9					
O=c1oc2ccccc2cc1-c1ccc(Cl)cc1Cl [Compound 12, 3-(2,4-Dichlorophenyl)-2H-chromen-2-one]		14.1 ± 0.6	226 to 228	> 172	>50		-40.9 ± 2.3		S									
O=c1oc2ccccc2cc1-c1ccccc1Cl [Compound 8, 3-(2-Chlorophenyl)-2H-chromen-2-one]		17.6 ± 2.1	186 to 188	20.7 ± 1.9	>50		-28.7 ± 4		S					second more potent replication inhibitor				
O=c1oc2ccccc2cc1-c1ccc2c(c1)OCO2 [Compound 13, 3-(Benzo[d][1,3]dioxol-5-yl)-2H-chromen-2-one]	32.8 ± 4.3	39.5 ± 2.3	168 to 170	138 ± 22.3	16.7 ± 3.4	fair inhibitory activity	68.5 ± 3.4	specific inhibitors of the NF-κB function	S									
COc1ccc(-c2cc3cccc(O)c3oc2=O)cc1 [Compound 17, 8-Hydroxy-3-(4-methoxyphenyl)-2H-chromen-2-one]	85.7 ± 3.4	88.3 ± 5.5		84.6 ± 12.1	>50	fair inhibitory activity	87.8 ± 9.8		U	potent though unspecific anti-Tat activity	82.2 ± 3.1				4-5 fold	confirmed		
O=c1oc2ccccc2cc1-c1ccc(Cl)cc1 [Compound 9, 3-(4-Chlorophenyl)-2H-chromen-2-one]		-4.9 ± 0.8	190 to 192	> 195	>50		33 ± 2.33											
O=c1oc2ccccc2cc1-c1ccccc1 [Compound 7, 3-Phenyl-2H-chromen-2-one]	26.8 ± 2.9	33.7 ± 1		130 ± 11.4	>50		21.7 ± 3		S									
COc1ccc(-c2cc3ccccc3oc2=O)cc1 [Compound 10, 3-(4-Methoxyphenyl)-2H-chromen-2-one]	73.5 ± 6.7	66.6 ± 3.4	141 to 143	73 ± 8.6		fair inhibitory activity	61.2 ± 2.4		U	potent though unspecific anti-Tat activity					4-5 fold			
COc1ccc(-c2cc3ccccc3oc2=O)cc1OC [Compound 14, 3-(3,4-Dimethoxyphenyl)-2H-chromen-2-one]		-25.1 ± 5.3	127 to 129	> 177	>50		-23 ± 2.9											
COc1ccc2c(Cl)c(-c3ccccc3)c(=O)oc2c1 [Compound 20, 4-Chloro-7-methoxy-3-phenyl-2H-chromen-2-one]		-64.4 ± 10		> 209	18.4 ± 8.2		-21.2 ± 7											
Cc1cn([C@H]2C[C@H](N=[N+]=[N-])[C@@H](CO)O2)c(=O)[nH]c1=O [AZT, reference compound]																	0.01	> 1
O=c1oc2cc(O)ccc2cc1-c1ccccc1 [Compound 16, 7-Hydroxy-3-phenyl-2H-chromen-2-one]		17.2 ± 0.5		81.4 ± 14	>50	fair inhibitory activity	59 ± 8.2	specific inhibitors of the NF-κB function	S									
